Laboratory results taken from the NIST ThermoML archive (doi:10.1016/j.fluid.2005.09.010).
± gives the expanded uncertainty stated by the source.

Conditions: Liquid; for mass density: 298.15 K, 101.33 kPa

Structure (SMILES)	mass density	vapor or sublimation pressure (375.52 K)	vapor or sublimation pressure (353.2 K)	vapor or sublimation pressure (353.85 K)	vapor or sublimation pressure (322.4 K)
C1COCCO1 [1,4-dioxane]	1027.85 ± 0.23 kg/m3	101.3 ± 4.1 kPa	–	–	–
c1ccccc1 [benzene]	873.55 ± 0.22 kg/m3	–	101.3 ± 4.1 kPa	–	–
C1CCCCC1 [cyclohexane]	773.65 ± 0.32 kg/m3	–	–	101.3 ± 4.1 kPa	–
C1CCCC1 [cyclopentane]	739.74 ± 0.79 kg/m3	–	–	–	101.3 ± 4.1 kPa
